What was measured:
healthy volunteers = test: Phase 1 single-ascending-dose (SAD) study, safety
Experimental: Four single oral dose levels (0.2, 0.6, 2 and 6 mg) were given in the morning on day 1 in the SAD study, and three oral doses (0.6, 2 and 6 mg) were given in the morning of day 1 to day 7 in the MAD study, to independent dose cohorts. […] Each dose cohort comprised eight volunteers (six (5/1) active and two (1/1) placebo per dose level).
During the rest of the study, only volunteers with pathological values were excluded.
Participants were admitted to the research clinic at midday before dosing (day −1). In the SAD study, they remained in-house until day 8 for PK and PD samples and safety assessments. In the MAD study, participants remained in-house until day 14 and returned to the research facility on an outpatient basis to have PK and safety assessments at 216 h and 264 h (day 16 and day 18) after their last dose (day 7). Safety monitoring (physical examinations, vital sign measurements, 12-lead ECGs, clinical safety laboratory tests and AE monitoring) were performed throughout the studies. Psychometrics tests (Bond & Lader VAS, Addiction Research Center Inventory (49-item short form) (ARCI-49) and Profile of Mood States 65 self-report items (POMS-65)) and the Columbia-Suicide Severity Rating Scale (C-SSRS) test were performed at baseline, before dose and at 4 h and 24 h after dose on day 1 and day 7 (MAD study, only) and C-SSRS only at 24 h.
All participants who had AEs, whether considered associated with the use of the investigational product or not, were monitored for as long as needed to determine resolution.

[1] = target: T1, hERG (human ether-a-go-go-related gene) (Homo sapiens, UniProt Q12809); test: hERG tail current in transfected HEK293 cells (GLP); assay type: cell-based; settings: GLP safety pharmacology
T1 construct: expressed in transfected cells; host or cells: HEK293 (stably transfected)
T1 sequence (Q12809 whole entry): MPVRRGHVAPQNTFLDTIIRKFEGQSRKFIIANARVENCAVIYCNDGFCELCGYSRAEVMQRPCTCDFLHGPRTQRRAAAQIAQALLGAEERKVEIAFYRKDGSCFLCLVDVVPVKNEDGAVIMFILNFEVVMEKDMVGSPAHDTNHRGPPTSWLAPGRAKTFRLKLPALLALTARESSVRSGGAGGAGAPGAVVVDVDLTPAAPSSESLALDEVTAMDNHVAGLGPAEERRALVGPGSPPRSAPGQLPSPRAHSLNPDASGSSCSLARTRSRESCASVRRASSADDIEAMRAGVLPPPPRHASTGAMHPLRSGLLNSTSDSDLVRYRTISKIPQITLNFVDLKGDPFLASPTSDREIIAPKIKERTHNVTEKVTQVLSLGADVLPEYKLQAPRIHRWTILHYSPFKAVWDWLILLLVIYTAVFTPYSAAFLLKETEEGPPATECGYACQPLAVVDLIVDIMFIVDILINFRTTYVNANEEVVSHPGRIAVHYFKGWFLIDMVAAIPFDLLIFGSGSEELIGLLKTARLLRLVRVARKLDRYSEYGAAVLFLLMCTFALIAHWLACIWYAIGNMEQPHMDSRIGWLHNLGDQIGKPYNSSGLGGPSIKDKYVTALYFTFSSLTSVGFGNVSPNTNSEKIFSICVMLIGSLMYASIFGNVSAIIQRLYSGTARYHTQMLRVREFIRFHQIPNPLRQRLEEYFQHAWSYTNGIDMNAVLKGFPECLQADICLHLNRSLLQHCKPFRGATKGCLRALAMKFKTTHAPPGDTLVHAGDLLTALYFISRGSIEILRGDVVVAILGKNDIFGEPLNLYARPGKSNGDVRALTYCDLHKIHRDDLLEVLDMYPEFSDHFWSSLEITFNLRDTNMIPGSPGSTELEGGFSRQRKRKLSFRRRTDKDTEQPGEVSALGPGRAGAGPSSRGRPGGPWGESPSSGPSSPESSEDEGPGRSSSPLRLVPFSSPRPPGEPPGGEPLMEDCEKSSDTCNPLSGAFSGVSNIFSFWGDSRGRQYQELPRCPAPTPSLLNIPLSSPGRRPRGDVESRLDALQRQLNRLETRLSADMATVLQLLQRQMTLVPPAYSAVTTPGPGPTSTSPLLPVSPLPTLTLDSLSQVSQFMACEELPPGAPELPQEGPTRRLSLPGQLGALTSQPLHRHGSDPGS
Experimental: Cells were clamped to −80 mV, depolarized to 0 mV for 5 s allowing activation of hERG current and repolarized to −50 mV for 5 s allowing hERG tail current to deactivate. This experimental procedure was repeated at a frequency of 0.06 Hz. Currents were filtered at 1 kHz and acquired at the frequency of 2 kHz. Amplitude of hERG tail current was measured during the repolarizing pulse from 0 to −50 mV. […] Currents were measured before and after exposure to the test compound. The individual data were collected using pClamp software (release 8.2, AXON Instruments, Molecular Devices).

THC behavioral effects = test: Inhibition of THC effects in vivo (summary over behavioral models); parameters: species or system mice, rats and non-human primates
Experimental: Statistical analyses were carried out using GraphPad Prism, Statistica (Statsoft) or SigmaPlot (Systat Software) software. […] When appropriate, significant main effects were analyzed by subsequent multiple paired comparisons or multiple comparisons versus the control group using the appropriate post hoc test (Dunnett, Tukey or Sidak test). Different but similar post hoc tests were used because the experiments were performed by independent research groups that used similar but not identical statistical procedures. […] For non-parametric analysis, a Kruskal–Wallis ANOVA was used, followed, when appropriate, by the Mann–Whitney test for pairwise comparisons. Unless otherwise stated, all the performed statistical tests were two-sided. The ID50 or IC50 was estimated by nonlinear regression using the ‘log(inhibitor) versus response’ equation model with GraphPad Prism software. All results are expressed as mean ± s.e.m. The significance threshold was set at P < 0.05.

In the case of COc1ccc(CO[C@H]2CC[C@@]3(C)C(=CC[C@H]4[C@@H]5CC[C@H](C(C)=O)[C@@]5(C)CC[C@@H]43)C2)cc1 [AEF0117, 3β-(4-methoxybenzyloxy)pregn-5-en-20-one], the “Number of TEAEs” value (healthy volunteers; single 0.2 mg) is reported as 4 E, the “Number of participants with a TEAE leading to discontinuation” value (from here on “Number … to discontinuation”) (healthy volunteers; single 0.2 mg) is reported as 0 n (%) and the “Number of participants with an SAE” value (healthy volunteers; single 0.2 mg) is reported as 0 n (%). The “Number of participants with at least one TEAE” value (“Number … at least one TEAE” for short) (healthy volunteers; single 0.2 mg) was 2 (33.3) n (%), the “Participants with TEAE: Mild” value (healthy volunteers; single 0.2 mg) was 2 (33.3) n (%) and the “Participants with TEAE: Moderate” value (healthy volunteers; single 0.2 mg) was 1 (16.7) n (%). For the same compound, the “Participants with TEAE: Not related” value (healthy volunteers; single 0.2 mg) was 1 (16.7) n (%), the “Participants with TEAE: Severe” value (healthy volunteers; single 0.2 mg) was 0 n (%) and the “TEAEs by SOC: Gastrointestinal disorders” value (healthy volunteers; single 0.2 mg) was 2 (33.3) n (%). For the same compound, the “TEAEs by SOC: Investigations” value (healthy volunteers; single 0.2 mg) was 0 n (%), the “TEAEs by SOC: Nervous system disorders” value (healthy volunteers; single 0.2 mg) was 1 (16.7) n (%) and the “Number of TEAEs” value (healthy volunteers; single 0.6 mg) was 0 E. The “Number … to discontinuation” value (healthy volunteers; single 0.6 mg) was 0 n (%), the “Number of participants with an SAE” value (healthy volunteers; single 0.6 mg) was 0 n (%) and the “Number … at least one TEAE” value (healthy volunteers; single 0.6 mg) was 0 n (%). For the same compound, the “Participants with TEAE: Mild” value (healthy volunteers; single 0.6 mg) was 0 n (%), the “Participants with TEAE: Moderate” value (healthy volunteers; single 0.6 mg) was 0 n (%) and the “Participants with TEAE: Not related” value (healthy volunteers; single 0.6 mg) was 0 n (%). For the same compound, the “Participants with TEAE: Related” value (healthy volunteers; single 0.6 mg) was 0 n (%), the “Participants with TEAE: Severe” value (healthy volunteers; single 0.6 mg) was 0 n (%) and the “TEAEs by SOC: Gastrointestinal disorders” value (healthy volunteers; single 0.6 mg) was 0 n (%). For the same compound, the “TEAEs by SOC: Investigations” value (healthy volunteers; single 0.6 mg) was 0 n (%), the “TEAEs by SOC: Nervous system disorders” value (healthy volunteers; single 0.6 mg) was 0 n (%) and the “Number of TEAEs” value (healthy volunteers; single 2 mg) was 2 E. For the same compound, the “Number … to discontinuation” value (healthy volunteers; single 2 mg) was 0 n (%), the “Number of participants with an SAE” value (healthy volunteers; single 2 mg) was 0 n (%) and the “Number … at least one TEAE” value (healthy volunteers; single 2 mg) was 1 (8.3) n (%). The “Participants with TEAE: Mild” value (healthy volunteers; single 2 mg) was 1 (8.3) n (%), the “Participants with TEAE: Moderate” value (healthy volunteers; single 2 mg) was 0 n (%) and the “Participants with TEAE: Not related” value (healthy volunteers; single 2 mg) was 0 n (%). The “Participants with TEAE: Severe” value (healthy volunteers; single 2 mg) was 0 n (%), the “TEAEs by SOC: Gastrointestinal disorders” value (healthy volunteers; single 2 mg) was 0 n (%) and the “TEAEs by SOC: Investigations” value (healthy volunteers; single 2 mg) was 1 (8.3) n (%). The “TEAEs by SOC: Nervous system disorders” value (healthy volunteers; single 2 mg) was 0 n (%), the “Number of TEAEs” value (healthy volunteers; single 6 mg) was 0 E and the “Number … to discontinuation” value (healthy volunteers; single 6 mg) was 0 n (%). The “Number of participants with an SAE” value (healthy volunteers; single 6 mg) was 0 n (%), the “Number … at least one TEAE” value (healthy volunteers; single 6 mg) was 0 n (%) and the “Participants with TEAE: Mild” value (healthy volunteers; single 6 mg) was 0 n (%). The “Participants with TEAE: Moderate” value (healthy volunteers; single 6 mg) was 0 n (%), the “Participants with TEAE: Not related” value (healthy volunteers; single 6 mg) was 0 n (%) and the “Participants with TEAE: Related” value (healthy volunteers; single 6 mg) was 0 n (%). The “Participants with TEAE: Severe” value (healthy volunteers; single 6 mg) was 0 n (%), the “TEAEs by SOC: Gastrointestinal disorders” value (healthy volunteers; single 6 mg) was 0 n (%) and the “TEAEs by SOC: Investigations” value (healthy volunteers; single 6 mg) was 0 n (%). The “TEAEs by SOC: Nervous system disorders” value (healthy volunteers; single 6 mg) was 0 n (%), the “adverse effects on hERG tail current” value [1] was “did not show any adverse effects” and the “most observed ID50 for inhibiting the effects of THC” value (THC behavioral effects; mice and non-human primates, oral) was 5 µg/kg. For the same compound, the “most observed ID50 for inhibiting the effects of THC” value (THC behavioral effects; mice, rats and non-human primates) was 5 µg/kg, the “ID100 for THC effects in fewer cases” value (THC behavioral effects; oral, 3 h before THC) was 1.5 µg/kg and the “most frequently observed ID100 for THC effects” value (THC behavioral effects; oral, 3 h before THC) was 15 µg/kg.
